Values of other authors as cited in patent US11497741B2, “Granules containing diamine derivative” (DAIICHI SANKYO COMPANY, LIMITED, priority 2018, dated 2022).

solubility (water solubility) (neutral aqueous solution (neutral buffer solution)): reduced solubility
solubility (strongly acidic aqueous solution): good solubility
SMILES: CN1CCc2nc(C(=O)N[C@@H]3C[C@@H](C(=O)N(C)C)CC[C@@H]3NC(=O)C(=O)Nc3ccc(Cl)cn3)sc2C1 [Edoxaban, N^1-(5-Chloropyridin-2-yl)-N^2-((1S,2R,4S)-4-[(dimethylamino)carbonyl]-2-{[(5-methyl-4,5,6,7-tetrahydrothiazolo[5,4-c]pyridin-2-yl)carbonyl]amino}cyclohexyl)ethanediamide]
